Experimental data from ChEMBL document CHEMBL3603732, “Synthesis, biological evaluation and molecular modeling of new tetrahydroacridine derivatives as potential multifunctional agents for the treatment of Alzheimer's disease” (Bioorg Med Chem, 2015).

Tests used:
[1] = Cytotoxic activity against human A549 cells assessed as cell viability at 100 nM incubated for 48 hrs by WST1 assay; format: cell-based; details: read-out: Activity
Cholinesterase = Cholinesterase (Equus caballus, UniProt P81908)
Sequence of Cholinesterase (P81908 whole entry): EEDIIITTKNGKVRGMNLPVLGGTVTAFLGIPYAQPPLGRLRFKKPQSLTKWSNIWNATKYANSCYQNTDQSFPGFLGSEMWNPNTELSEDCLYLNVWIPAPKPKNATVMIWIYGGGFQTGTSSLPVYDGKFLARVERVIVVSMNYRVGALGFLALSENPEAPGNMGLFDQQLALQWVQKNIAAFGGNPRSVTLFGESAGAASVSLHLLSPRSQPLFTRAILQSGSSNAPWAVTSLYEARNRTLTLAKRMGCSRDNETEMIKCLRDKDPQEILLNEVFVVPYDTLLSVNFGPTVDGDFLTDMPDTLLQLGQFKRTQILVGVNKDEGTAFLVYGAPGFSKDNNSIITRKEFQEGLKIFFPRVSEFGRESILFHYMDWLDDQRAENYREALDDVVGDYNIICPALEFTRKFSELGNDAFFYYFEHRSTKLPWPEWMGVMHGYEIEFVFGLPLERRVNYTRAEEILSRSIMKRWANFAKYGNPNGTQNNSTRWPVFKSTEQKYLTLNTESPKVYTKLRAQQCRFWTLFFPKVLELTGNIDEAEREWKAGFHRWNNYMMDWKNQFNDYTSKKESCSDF
Description: Inhibition of equine serum BChE using ATC iodide substrate by Ellman's assay

A549 = test: Cytotoxic activity against human A549 cells assessed as reduction in cell viability incubated for 48 hrs by WST1 assay; format: cell-based; details: A549, 48 h
acetylcholinesterase [2] = test: Selectivity index, ratio of IC50 for cytotoxic activity against human A549 cells to IC50 for acetylcholinesterase in human erythrocytes; format: toxicity, cell-based; details: read-out: Ratio IC50
Acetylcholinesterase [3] = biological target: T1, Acetylcholinesterase (Homo sapiens, UniProt P22303); test: biochemical
T1 sequence (P22303 whole entry): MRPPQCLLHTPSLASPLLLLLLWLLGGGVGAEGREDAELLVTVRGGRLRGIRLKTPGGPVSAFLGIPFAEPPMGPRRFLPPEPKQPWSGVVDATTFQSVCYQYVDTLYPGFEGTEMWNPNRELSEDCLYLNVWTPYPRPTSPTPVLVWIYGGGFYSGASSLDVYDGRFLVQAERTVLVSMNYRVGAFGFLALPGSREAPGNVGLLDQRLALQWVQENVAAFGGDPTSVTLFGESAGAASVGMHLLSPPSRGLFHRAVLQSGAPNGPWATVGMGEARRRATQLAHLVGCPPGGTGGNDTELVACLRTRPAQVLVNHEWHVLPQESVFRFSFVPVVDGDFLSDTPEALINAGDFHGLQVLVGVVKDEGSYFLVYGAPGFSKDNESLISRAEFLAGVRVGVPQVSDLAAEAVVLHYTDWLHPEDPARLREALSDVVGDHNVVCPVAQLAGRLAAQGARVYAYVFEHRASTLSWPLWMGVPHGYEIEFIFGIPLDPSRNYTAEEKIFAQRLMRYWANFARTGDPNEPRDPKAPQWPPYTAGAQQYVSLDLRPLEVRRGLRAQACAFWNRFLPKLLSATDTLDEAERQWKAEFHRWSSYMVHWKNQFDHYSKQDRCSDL
Description: Inhibition of acetylcholinesterase in human erythrocytes using acetylthiocholine iodide substrate by spectrophotometric Ellman's method

Acetylcholinesterase [4] = biological target: T1, Acetylcholinesterase; test: Inhibition of AChE (unknown origin) assessed as enzyme-mediated Amyloid beta peptide (1 to 42) aggregation incubated for 5 hrs by thioflavin-T based fluorometric assay
Acetylcholinesterase [5] = biological target: Acetylcholinesterase (Electrophorus electricus, UniProt O42275)
Sequence of Acetylcholinesterase (Electrophorus electricus, UniProt O42275) (O42275 whole entry): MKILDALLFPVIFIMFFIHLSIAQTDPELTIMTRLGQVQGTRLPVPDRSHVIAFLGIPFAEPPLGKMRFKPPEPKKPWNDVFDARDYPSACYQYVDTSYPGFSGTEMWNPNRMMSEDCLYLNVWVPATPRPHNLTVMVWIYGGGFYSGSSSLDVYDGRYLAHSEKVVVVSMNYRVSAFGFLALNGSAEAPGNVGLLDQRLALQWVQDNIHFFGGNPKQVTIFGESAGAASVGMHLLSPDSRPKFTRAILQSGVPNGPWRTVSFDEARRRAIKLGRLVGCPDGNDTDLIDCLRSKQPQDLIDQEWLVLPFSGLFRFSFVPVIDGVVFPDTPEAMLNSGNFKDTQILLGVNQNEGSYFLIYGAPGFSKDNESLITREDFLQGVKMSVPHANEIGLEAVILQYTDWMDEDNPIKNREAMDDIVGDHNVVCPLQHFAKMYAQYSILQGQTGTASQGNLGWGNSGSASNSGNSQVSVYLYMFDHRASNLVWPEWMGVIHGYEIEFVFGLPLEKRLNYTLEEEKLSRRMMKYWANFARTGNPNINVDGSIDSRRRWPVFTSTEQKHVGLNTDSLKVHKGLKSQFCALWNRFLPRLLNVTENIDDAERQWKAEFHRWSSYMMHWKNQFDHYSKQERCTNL
Description: Inhibition of electric eel AChE using ATC iodide substrate by Ellman's assay

`CN(C)c1ccc(C(=O)NCCNc2c3c(nc4ccccc24)CCCC3)cc1` showed a viability at 48 h, 0.1 µM [1] of 93.7%, an IC50 (Cholinesterase) of 0.5 nM and an IC50 (A549) of 39100 nM. It also gave a selectivity ratio (acetylcholinesterase [2]) of 275, an IC50 (Acetylcholinesterase [3]) of 142 nM and an IC50 (Acetylcholinesterase [4]) of 12100 nM. The IC50 (Acetylcholinesterase [5]) was 0.4 nM.
`CN(C)c1ccc(C(=O)NCCCNc2c3c(nc4ccccc24)CCCC3)cc1` showed a viability at 48 h, 0.1 µM [1] of 91.3%, an IC50 (Cholinesterase) of 73.3 nM and an IC50 (A549) of 46300 nM. For the same molecule, the selectivity ratio (acetylcholinesterase [2]) was 2500, the IC50 (Acetylcholinesterase [3]) was 19 nM and the IC50 (Acetylcholinesterase [5]) was 200 nM.
`CN(C)c1ccc(C(=O)NCCCCNc2c3c(nc4ccccc24)CCCC3)cc1` showed an IC50 (Cholinesterase) of 7 nM, an IC50 (Acetylcholinesterase [3]) of 295 nM and an IC50 (Acetylcholinesterase [5]) of 200 nM.
Molecule `CN(C)c1ccc(C(=O)NCCCCCNc2c3c(nc4ccccc24)CCCC3)cc1` has an IC50 (Cholinesterase) of 3.7 nM, an IC50 (Acetylcholinesterase [3]) of 357 nM and an IC50 (Acetylcholinesterase [5]) of 86.7 nM.
Molecule `CN(C)c1ccc(C(=O)NCCCCCCNc2c3c(nc4ccccc24)CCCC3)cc1` has an IC50 (Cholinesterase) of 1.1 nM, an IC50 (Acetylcholinesterase [3]) of 64 nM and an IC50 (Acetylcholinesterase [5]) of 0.6 nM.
Work on `CN(C)c1ccc(C(=O)NCCCCCCCNc2c3c(nc4ccccc24)CCCC3)cc1` yielded an IC50 (Cholinesterase) of 210 nM, an IC50 (Acetylcholinesterase [3]) of 75 nM and an IC50 (Acetylcholinesterase [5]) of 167 nM.
Molecule `CN(C)c1ccc(C(=O)NCCCCCCCCNc2c3c(nc4ccccc24)CCCC3)cc1` has an IC50 (Cholinesterase) of 0.7 nM, an IC50 (Acetylcholinesterase [3]) of 77 nM and an IC50 (Acetylcholinesterase [5]) of 0.5 nM.
With `CN(C)c1ccc(C(=O)NCCCCCCCCCNc2c3c(nc4ccccc24)CCCC3)cc1` the IC50 (Cholinesterase) was 0.7 nM, the IC50 (Acetylcholinesterase [3]) was 125 nM and the IC50 (Acetylcholinesterase [5]) was 0.5 nM.
